{
  "source": "patent US12220418B2",
  "about": "(MEDINCELL S.A., priority 2023, dated 2025)",
  "assay": "Open-label SAD and MAD study, pharmacokinetics in healthy subjects and patients",
  "assay_type": "in vivo, human",
  "settings": "oral, 2.5 to 20 mg/day for 7 days",
  "procedure": "This study was an open-label, SAD, and MAD study to evaluate the safety, tolerability, and PK of Formulation 1 in healthy subjects and patients with a diagnosis of schizophrenia or schizoaffective disorder. Healthy subjects received subtherapeutic Formulation 1 doses of up to 105 mg and patients received therapeutic doses of up to 566 mg. […] Subjects and patients who met screening eligibility were assigned to 1 of 8 active cohorts, or the Vehicle Cohort, as detailed in Table 5.1 below.\nAll cohorts included assessments of safety, tolerability, and intensive PK sampling.\nExcept for the starting dose of 70 mg, the study followed an adaptive design in which the decision to dose-escalate with Formulation 1 was based on a review of the PK and safety data from the preceding lower dose of Formulation 1.\nAn extensive PK collection scheme was applied following the last oral dose to fully characterize the PK at steady-state.\nIn multiple-dose cohorts, the 3 doses of Formulation 1 were administered on day 1, day 29 (week 4) and day 57 (week 8), respectively.",
  "data": [
    {"smiles": "Cc1cc2c(s1)Nc1ccccc1N=C2N1CCN(C)CC1", "note": "[olanzapine, 2-methyl-4-(4-methyl-1-piperazinyl)-10H-thieno[2,3-b] [1,5]benzodiazepine]", "values": [
      {"measurement": "increase of systemic exposure (Cmax, AUCτ,ss) with dose", "value": "dose-proportional"}
    ]}
  ]
}
